The record followed here is article PMC5942189 (Journal of the American Chemical Society, 2018).

Test [1] deals with Escherichia coli W3110 (wild-type). Briefly: MIC determination in Mueller-Hinton broth, E. coli W3110. It is filed as cell-based. Conditions: standard Mueller-Hinton broth assay.
The test system of test [2] is E. coli WD101 (isogenic CAMP-resistant mutant, colistin-resistant). As to the kind of experiment: MIC determination in Mueller-Hinton broth, E. coli WD101. The format is cell-based, Escherichia coli. Conditions: standard Mueller-Hinton broth assay.
For test [3], the system named is multi-drug-resistant Acinetobacter baumannii (Ab) 5075. Briefly: MIC determination in Mueller-Hinton broth, A. baumannii 5075. It is filed as cell-based. The following applies: multi-drug-resistant A. baumannii Ab5075; standard Mueller-Hinton broth assay.

In the case of “N-AlTRSSRAGLQFPVGRVHRLLRKF-Hy (sidechain bridge or staple) [HyRes buforin]”, the MIC stood at 8 µM in test [1], 16 µM in test [2] and 4 µM in test [3].
For the substance “N-XTRSSRAGLQFPVGRVHRLLRXK-C [DiHy buforin]”, the MIC in test [3] was 64 µM.
“N-XTRSSRAGLQFPXVGRVHRLLRXK-C [TriAl buforin]” displayed an MIC in test [3] of 64 µM.

For orientation: MIC means the smallest concentration in the dilution series that meets the test's criterion for growth inhibition.
